The values below come from US20140112878A1, “Tyrosinase Inhibitor” (priority 2012, published 2014).

Data set [1] has as its target T1, tyrosinase (DOPA oxidase activity) in normal human neonatal epidermal melanocytes (NHEMs) (Homo sapiens, UniProt P14679).
T1 sequence (P14679 19-529): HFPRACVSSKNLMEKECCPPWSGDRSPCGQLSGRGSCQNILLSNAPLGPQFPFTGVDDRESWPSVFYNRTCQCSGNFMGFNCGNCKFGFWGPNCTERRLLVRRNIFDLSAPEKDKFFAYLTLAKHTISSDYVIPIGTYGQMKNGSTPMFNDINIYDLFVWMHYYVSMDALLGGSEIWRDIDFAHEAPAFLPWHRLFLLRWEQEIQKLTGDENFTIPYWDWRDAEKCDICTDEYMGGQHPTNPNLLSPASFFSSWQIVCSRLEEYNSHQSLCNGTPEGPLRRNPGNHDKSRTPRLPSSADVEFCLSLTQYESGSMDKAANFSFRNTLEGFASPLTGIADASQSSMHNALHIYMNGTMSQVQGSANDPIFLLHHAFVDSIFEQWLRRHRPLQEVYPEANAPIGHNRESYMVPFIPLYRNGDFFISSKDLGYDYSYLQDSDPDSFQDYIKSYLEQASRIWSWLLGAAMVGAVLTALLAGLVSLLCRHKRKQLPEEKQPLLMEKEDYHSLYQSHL
Put plainly: DOPA oxidase activity in cultured normal human neonatal epidermal melanocytes.
Description: (§1) Medium 254 containing a PMA-free growth supplement (HMGS) was used as a medium.
(§2) After cultivating for 3 days, Endotheline-1 (ET-1), SCF, α-MSH, Histamine, and PGE2, each prepared to be the final concentration of 1 nM in the medium, were added. The same test compounds used in Example 1 were also added so as to reach the final concentration. The mixture was cultured at 37° C. for 3 days, in the presence of 5% CO2. The same amount of DMSO was added as a control.
After the completion of the cultivation, 20 L/well of alamar blue reagent (Invitrogen Corporation) was added. After incubating for 2 to 3 hours, the fluorescence intensity of the medium was measured to monitor the cell respiration activity. Then, the cells were washed with PBS, and 20 μL/well of extraction buffer (0.1 M Tris-HCL (pH 7.2), 1% NP-40, 0.01% SDS, 100 μM PMSF, 1 μg/m aprotinin) and 20 μL/well of Assay Buffer (4% dimethylformamide, 100 mM Sodium phosphate-buffered (pH 7.1)) were added. The cells were solubilized at 4° C. for 3 hours, and DOPA oxidase activity was measured. DOPA oxidase activity was measured according to the following method, with reference to the MBTH method (Winder A. et al., 1991, Eur. J. Biochem. 198:317-326).
80 μL of the above-mentioned Assay Buffer, 60 μL of 20.7 mM MBTH (3-methyl-2-benzothiazolinone hydrazone) solution, and 40 μL of 5 mM L-DOPA (L-dihydroxyphenylalanine) solution as a substrate, were added to each well of solubilized cell solution, and the mixture was allowed for reaction at 37° C. for 30 to 60 minutes. Then the color reaction was measured based on absorbance at 490 nm (N=3). The measurements are expressed as values relative to that of the control.

The target of data set [2] is T2, human tyrosinase (neonatal epidermal melanocyte extract) (Homo sapiens, UniProt P14679).
T2 construct: host or cells: normal human neonatal epidermal melanocytes (NHEMs), detergent/ultrasonication lysate supernatant
T2 sequence (P14679 19-529): T1 sequence (P14679 19-529)
Put plainly: DOPA oxidase activity (MBTH method) in cell extract. The conditions noted are these: for DOPA oxidase activity, value relative to that of the control: N=3; for DOPA oxidase activity suppressive effect (in words): IPMP 0.00075 to 0.015 w/v %. It counts as biochemical. On the procedure: The cells were then treated with ultrasonication, and were centrifuged at 15000 r.p.m. for 10 minutes, and the supernatant was obtained.
Tyrosinase activity was measured using the cell extract mentioned above. […] Then, 20 μL of the following test compounds were added to the wells so that the mixture reaches the final concentration shown in Table 1.

Data set [3] relates to Normal human neonatal epidermal melanocytes (NHEMs). Kind of data set: Alamar blue cell respiration activity (cell toxicity). Particulars: for Alamar blue (cell toxicity) AVE: cultured NHEMs. Format: cell-based. In general terms: Alamar Blue is a resazurin reagent that responds to reducing activity.
Description: as §1, §2
After the completion of the cultivation, 20 L/well of alamar blue reagent (Invitrogen Corporation) was added. After incubating for 2 to 3 hours, the fluorescence intensity of the medium was measured to monitor the cell respiration activity. Then, the cells were washed with PBS, and 20 μL/well of extraction buffer (0.1 M Tris-HCL (pH 7.2), 1% NP-40, 0.01% SDS, 100 μM PMSF, 1 μg/m aprotinin) and 20 μL/well of Assay Buffer (4% dimethylformamide, 100 mM Sodium phosphate-buffered (pH 7.1)) were added. The cells were solubilized at 4° C. for 3 hours, and DOPA oxidase activity was measured.
Data set [4] relates to mouse melanoma B-16 cells. Particulars: reported in JP-A-9-249544; cited from earlier work.
Data set [5] concerns mushroom-derived tyrosinase. The conditions noted are these: reported in JP-A-9-249544; cited from earlier work.
[6] abbreviates: 10 μM (IPMP 0.00015 w/v %), 3 days, Example 2.
Where [7] appears, read: 100 μM (IPMP 0.0015 w/v %), 3 days, Example 2.
[8] abbreviates: 0.67 μM (0.00001 w/v %), Example 3.
Where [9] appears, read: 167.5 μM (0.0025 w/v %), Example 3.

Take `Cc1ccc(C(C)C)cc1O` [compound 2, carvacrol]: the “DOPA oxidase activity AVE, relative to control” value is on record as 99.3 in data set [1] (setting [6]) and 96.3 in data set [1] (setting [7]). For the same compound, the “DOPA oxidase activity suppressive effect (in words)” value in data set [1] (Example 2) and in data set [2] was “did not show DOPA oxidase activity suppressive effect” in each case. In addition, the “DOPA oxidase activity, value relative to that of the control” value is 102.1 ± 0.5 in data set [2] (50 μM (IPMP 0.00075%)), 96.9 ± 1.8 in data set [2] (100 μM (IPMP […])), 99.6 ± 1.8 in data set [2] (500 μM (IPMP 0.0075%)) and 97.8 ± 1.9 in data set [2] (1000 μM (IPMP […])). In addition, the “Alamar blue (cell toxicity) AVE” value in data set [3] (setting [6]) was 94.2; in data set [3] (setting [7]), 115.2. Besides, the “Suppressive effect on melanin production (in words)” value in data set [4] was “exhibit suppressive effect on melanin production”. Moreover, in data set [5], the “Inhibitory activity on mushroom-derived tyrosinase (in words)” value was “exhibit inhibitory activity on mushroom-derived tyrosinase”.

As for `Cc1cc(O)ccc1C(C)C` [IPMP, isopropylmethylphenol], the “DOPA oxidase activity AVE, relative to control” value is recorded as 73.7 in data set [1] (setting [8]); 56.5 in data set [1] (6.7 μM, Example 3); 74.8 in data set [1] (setting [6]); 33.9 in data set [1] (67 μM (0.001 w/v %), Example 3); 50.6 in data set [1] (setting [7]); 25.6 in data set [1] (setting [9]). The “DOPA oxidase activity, value relative to that of the control” value worked out at 83.1 ± 3.9 in data set [2] (50 μM (IPMP 0.00075%)), 62.9 ± 3.5 in data set [2] (100 μM (IPMP […])), 32.8 ± 3.7 in data set [2] (500 μM (IPMP 0.0075%)) and 19.8 ± 1.2 in data set [2] (1000 μM (IPMP […])). Besides, the “Alamar blue (cell toxicity) AVE” value came to 84.9 in data set [3] (setting [8]); 85.4 in data set [3] (6.7 μM (6.0001 w/v %), Example 3); 94.1 in data set [3] (setting [6]); 78.9 in data set [3] (67 μM (0.001 w/v %), Example 3); 127 in data set [3] (setting [7]); 77.0 in data set [3] (setting [9]). Moreover, in data set [3] (0.00001 to 0.0025 w/v %, Example 3), the “Effect on cell growth (in words)” value is given as “did not affect cell growth”. For the same compound, the “Effect on cell growth (alamar blue method, in words)” value in data set [3] (at the concentration which showed DOPA oxidase activity suppressive effect, Example 2) is listed as “did not affect cell growth”.

For the compound `O=c1cc(CO)occ1O` [Kojic acid], the “Alamar blue (cell toxicity) AVE” value in data set [3] (setting [6]) amounted to 118.3; in data set [3] (setting [7]), 114.4.

Consider `Cc1ccc(C(C)C)c(O)c1` [compound 1, thymol], for which the “DOPA oxidase activity AVE, relative to control” value in data set [1] (setting [6]) is recorded as 98.6; in data set [1] (setting [7]), 95. Also, the “DOPA oxidase activity suppressive effect (in words)” value in data set [1] (Example 2) and in data set [2] was “did not show DOPA oxidase activity suppressive effect” in each case. In addition, the “DOPA oxidase activity, value relative to that of the control” value in data set [2] (50 μM (IPMP 0.00075%)) worked out at 103.7 ± 0.9; in data set [2] (100 μM (IPMP […])), 93.8 ± 1.6; in data set [2] (500 μM (IPMP 0.0075%)), 104.4 ± 0.8; in data set [2] (1000 μM (IPMP […])) it was 105.4 ± 0.5. Moreover, the “Alamar blue (cell toxicity) AVE” value in data set [3] (setting [6]) is listed as 84.9; in data set [3] (setting [7]), 104.4. Further, the “Suppressive effect on melanin production (in words)” value in data set [4] is reported as “exhibit suppressive effect on melanin production”. The “Inhibitory activity on mushroom-derived tyrosinase (in words)” value in data set [5] is reported as “exhibit inhibitory activity on mushroom-derived tyrosinase”.
